The source of these data is PubChem BioAssay AID256 (DTP/NCI, 2004).

Inconclusive results and toxic doses are left out.

In this experiment the test system is CD2F1 mice, L1210 leukemia ip, survival T/C. In words: NCI In Vivo Anticancer Drug Screen. Data for tumor model L1210 Leukemia (intraperitoneal) in CD2F1 (CDF1) mice. Particulars: higher = longer survival. The essentials: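 Each value reflects a quotient of treated over vehicle control outcomes in mice with a transplanted tumor.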
Setting [1] is: endpoint: mean survival time, dose: 100.0 mg/kg/injection, schedule: Q01DX009 (ip), vehicle: saline with Tween-80.
The mark [2] stands for this setting: endpoint: mean survival time, dose: 100.0 mg/kg/injection, schedule: Q04DX003 (ip), vehicle: saline with Tween-80.
Setting [3] is: endpoint: mean survival time, dose: 200.0 mg/kg/injection, schedule: Q01DX009 (ip), vehicle: saline with Tween-80.
Where [4] appears, read: endpoint: mean survival time, dose: 200.0 mg/kg/injection, schedule: Q04DX003 (ip), vehicle: saline with Tween-80.
Where [5] appears, read: endpoint: mean survival time, dose: 400.0 mg/kg/injection, schedule: Q01DX009 (ip), vehicle: saline with Tween-80.
Setting [6] is: endpoint: mean survival time, dose: 400.0 mg/kg/injection, schedule: Q04DX003 (ip), vehicle: saline with Tween-80.
Setting [7] is: endpoint: mean survival time, dose: 100.0 mg/kg/injection, schedule: Q04DX002 (ip), vehicle: saline with Tween-80.
The mark [8] stands for this setting: endpoint: mean survival time, dose: 200.0 mg/kg/injection, schedule: Q04DX002 (ip), vehicle: saline with Tween-80.
Setting [9] is: endpoint: mean survival time, dose: 400.0 mg/kg/injection, schedule: Q04DX002 (ip), vehicle: saline with Tween-80.
Setting [10] is: endpoint: mean survival time, dose: 100.0 mg/kg/injection, schedule: Q04DX003 (ip), vehicle: saline.
[11] abbreviates: endpoint: mean survival time, dose: 200.0 mg/kg/injection, schedule: Q04DX003 (ip), vehicle: saline.
Setting [12] is: endpoint: mean survival time, dose: 12.5 mg/kg/injection, schedule: Q04DX002 (ip), vehicle: saline with Tween-80.
Setting [13] is: endpoint: mean survival time, dose: 25.0 mg/kg/injection, schedule: Q04DX002 (ip), vehicle: saline with Tween-80.
The mark [14] stands for this setting: endpoint: mean survival time, dose: 50.0 mg/kg/injection, schedule: Q04DX002 (ip), vehicle: saline with Tween-80.

In the case of `N=Cc1c(O)n(C2CCCCC2)c(=O)n(C2CCCCC2)c1=O`, the T/C under setting [1] is 105 % of control; the T/C under setting [2] was 95 % of control; the T/C under setting [3] is 100 % of control; the T/C under setting [4] is 96 % of control; the T/C under setting [5] is 107 % of control; the T/C under setting [6] is 96 % of control.

Regarding `CCCCCOC(=O)COc1ccc(F)cc1`, the T/C runs as follows: under setting [7], 97 % of control; under setting [8], 105 % of control; under setting [9], 101 % of control.

Take `O=NN(CCCl)C(=O)Nc1ccc2c(c1)OCO2`: the T/C by setting is: (endpoint: mean survival time, dose: 44.0 mg/kg/injection, schedule: Q01DX001 (ip), vehicle: other) 156 % of control; (endpoint: mean survival time, dose: 66.0 mg/kg/injection, schedule: Q01DX001 (ip), vehicle: other) 216 % of control; (endpoint: mean survival time, dose: 100.0 mg/kg/injection, schedule: Q01DX001 (ip), vehicle: other) 277 % of control; (endpoint: mean survival time, dose: 150.0 mg/kg/injection, schedule: Q01DX001 (ip), vehicle: other) 171 % of control.

For `COc1ccc(CCNC(=O)Cc2cc3c(cc2[N+](=O)[O-])OCO3)cc1OC`, the T/C is 95 % of control (endpoint: mean survival time, dose: 100.0 mg/kg/injection, schedule: Q01DX001 (ip), vehicle: saline); 94 % of control (endpoint: mean survival time, dose: 200.0 mg/kg/injection, schedule: Q01DX001 (ip), vehicle: saline); 95 % of control (endpoint: mean survival time, dose: 400.0 mg/kg/injection, schedule: Q01DX001 (ip), vehicle: saline).

As to `CN(C)C(SCc1ccccc1)=[N+](C)C`, the T/C by setting is: under setting [7], 105 % of control; under setting [8], 94 % of control.

With `COc1ccc(C(C)c2cc3c(cc2OC)OCO3)cc1` (stereo not drawn), the T/C (endpoint: median survival time, dose: 25.0 mg/kg/injection, schedule: Q01DX009 (ip), vehicle: saline with Tween-80) is 101 % of control; the T/C (endpoint: median survival time, dose: 50.0 mg/kg/injection, schedule: Q01DX009 (ip), vehicle: saline with Tween-80) was 107 % of control; the T/C (endpoint: median survival time, dose: 100.0 mg/kg/injection, schedule: Q01DX009 (ip), vehicle: saline with Tween-80) was 113 % of control; the T/C (endpoint: median survival time, dose: 200.0 mg/kg/injection, schedule: Q01DX009 (ip), vehicle: saline with Tween-80) is 119 % of control.

Take `O=[N+]([O-])c1cc(Cl)cc2c1-c1ccc(Cl)cc1C2Br` (stereo not drawn): the T/C is, setting by setting: (endpoint: mean survival time, dose: 50.0 mg/kg/injection, schedule: Q01DX001 (ip), vehicle: carboxymethylcellulose (CMC)) 104 % of control; (endpoint: mean survival time, dose: 100.0 mg/kg/injection, schedule: Q01DX001 (ip), vehicle: carboxymethylcellulose (CMC)) 98 % of control; (endpoint: mean survival time, dose: 200.0 mg/kg/injection, schedule: Q01DX001 (ip), vehicle: carboxymethylcellulose (CMC)) 104 % of control; (endpoint: mean survival time, dose: 400.0 mg/kg/injection, schedule: Q01DX001 (ip), vehicle: carboxymethylcellulose (CMC)) 104 % of control.

For `O=C(c1ccccc1)C(Sc1ccccc1)c1ccccc1` (stereo not drawn), the T/C under setting [2] is 97 % of control, the T/C under setting [4] was 101 % of control and the T/C under setting [6] is 97 % of control.

With `CC(C)CC(NC(=O)CCl)C(=O)O` (stereo not drawn), the T/C was 101 % of control under setting [1]; 97 % of control under setting [2]; 96 % of control under setting [3]; 98 % of control under setting [4]; 101 % of control under setting [5]; 96 % of control under setting [6].

Take `O=C(NCc1ccccc1)C(=O)NCc1ccccc1`: the T/C under setting [7] is 90 % of control, the T/C under setting [8] was 87 % of control and the T/C under setting [9] was 90 % of control.

In the case of `O=c1[nH]c(=O)n(C2CC(O)C(CO)O2)cc1I` (stereo not drawn), the T/C (endpoint: mean survival time, dose: 50.0 mg/kg/injection, schedule: Q01DX007 (ip), vehicle: saline) is 110 % of control; the T/C (endpoint: mean survival time, dose: 50.0 mg/kg/injection, schedule: Q01DX009 (ip), vehicle: saline) was 106 % of control; the T/C (endpoint: mean survival time, dose: 50.0 mg/kg/injection, schedule: Q03DX003 (ip), vehicle: saline) was 104 % of control; the T/C (endpoint: mean survival time, dose: 50.0 mg/kg/injection, schedule: Q04DX003 (ip), vehicle: saline) is 101 % of control; the T/C (endpoint: mean survival time, dose: 100.0 mg/kg/injection, schedule: Q01DX007 (ip), vehicle: saline) is 117 % of control; the T/C (endpoint: mean survival time, dose: 100.0 mg/kg/injection, schedule: Q01DX009 (ip), vehicle: saline) was 108 % of control. The T/C (endpoint: mean survival time, dose: 100.0 mg/kg/injection, schedule: Q03DX003 (ip), vehicle: saline) was 107 % of control; the T/C under setting [10] is 106 % of control; the T/C (endpoint: mean survival time, dose: 200.0 mg/kg/injection, schedule: Q01DX007 (ip), vehicle: saline) is 108 % of control; the T/C (endpoint: mean survival time, dose: 200.0 mg/kg/injection, schedule: Q01DX009 (ip), vehicle: saline) is 111 % of control; the T/C (endpoint: mean survival time, dose: 200.0 mg/kg/injection, schedule: Q03DX003 (ip), vehicle: saline) was 115 % of control; the T/C under setting [11] is 106 % of control. Further, the T/C reads like this: (endpoint: mean survival time, dose: 500.0 mg/kg/injection, schedule: Q01DX009 (ip), vehicle: saline) 107 % of control; (endpoint: mean survival time, dose: 1000.0 mg/kg/injection, schedule: Q01DX009 (ip), vehicle: saline) 103 % of control.

In the case of `CN(C)c1ccc(C(O)c2ccc(N(C)C)cc2)cc1`, the T/C by setting is: under setting [2], 90 % of control; under setting [4], 91 % of control; under setting [6], 94 % of control.

For `C=C1c2cccc(O)c2C(O)=C2C(=O)[C@]3(O)C(O)=C(C(N)=O)C(=O)[C@@H](N(C)C)[C@@H]3[C@@H](O)[C@H]12`, the T/C runs as follows: (endpoint: median survival time, dose: 12.5 mg/kg/injection, schedule: Q01DX009 (ip), vehicle: Klucel (hydroxypropylcellulose) (HPC)) 96 % of control; (endpoint: median survival time, dose: 25.0 mg/kg/injection, schedule: Q01DX009 (ip), vehicle: Klucel (hydroxypropylcellulose) (HPC)) 104 % of control; (endpoint: median survival time, dose: 50.0 mg/kg/injection, schedule: Q01DX009 (ip), vehicle: Klucel (hydroxypropylcellulose) (HPC)) 107 % of control; (endpoint: median survival time, dose: 100.0 mg/kg/injection, schedule: Q01DX009 (ip), vehicle: Klucel (hydroxypropylcellulose) (HPC)) 114 % of control.

On to `NC(=O)c1ncc(-c2ccc(Cl)cc2)[nH]c1=O`, for which the T/C is 94 % of control (endpoint: mean survival time, dose: 100.0 mg/kg/injection, schedule: Q04DX003 (ip), vehicle: saline sonified); 93 % of control (endpoint: mean survival time, dose: 200.0 mg/kg/injection, schedule: Q04DX003 (ip), vehicle: saline sonified); 96 % of control (endpoint: mean survival time, dose: 400.0 mg/kg/injection, schedule: Q04DX003 (ip), vehicle: saline sonified).

As for `Cc1sc2cc(N)ccc2[n+]1C`, the T/C by setting is: under setting [12], 102 % of control; under setting [13], 98 % of control; under setting [14], 95 % of control; under setting [7], 98 % of control; under setting [8], 109 % of control.

Regarding `CC1=C(/C=C/C(O)CC(O)(C(F)(F)F)C(F)(F)F)C(C)(C)CCC1` (stereo not drawn), the T/C was 107 % of control under setting [10]; 98 % of control under setting [11]; 110 % of control (endpoint: mean survival time, dose: 400.0 mg/kg/injection, schedule: Q04DX003 (ip), vehicle: saline).

`Cc1ccc(C23CC4CC(CC(C4)C2)C3)cc1`: the T/C runs as follows: under setting [12], 101 % of control; under setting [13], 93 % of control; under setting [14], 96 % of control.
